# Assay results published in article PMC8844836 (Journal of molecular neuroscience : MN, 2020).
# “Also recorded” adds a separate entry of the source.
# Key:
# [1] = tested on: HER3; assay: HER3 tyrosine phosphorylation, Western blot, Calu-3 cells; format: cell-based; details: for effect of ROS inhibitors on HER3 transactivation, statistics: Fig. 4B, mean ± S.D. of 3 experiments, relative to PACAP by ANOVA; for effect of ROS inhibitors on PACAP-induced HER3 tyrosine phosphorylation: Western blot (Fig. 4A), 3 experiments
# [2] = tested on: EGFR; details: NSCLC cells ref Moody et al., 2019; cited from earlier work
# [3] = tested on: HER2; details: NSCLC cells ref Moody et al., 2019; cited from earlier work
# [4] = target: T1, PAC1 (Calu-3 cells) (Homo sapiens, UniProt P41586); assay: cell-based
# T1 sequence (P41586 21-468): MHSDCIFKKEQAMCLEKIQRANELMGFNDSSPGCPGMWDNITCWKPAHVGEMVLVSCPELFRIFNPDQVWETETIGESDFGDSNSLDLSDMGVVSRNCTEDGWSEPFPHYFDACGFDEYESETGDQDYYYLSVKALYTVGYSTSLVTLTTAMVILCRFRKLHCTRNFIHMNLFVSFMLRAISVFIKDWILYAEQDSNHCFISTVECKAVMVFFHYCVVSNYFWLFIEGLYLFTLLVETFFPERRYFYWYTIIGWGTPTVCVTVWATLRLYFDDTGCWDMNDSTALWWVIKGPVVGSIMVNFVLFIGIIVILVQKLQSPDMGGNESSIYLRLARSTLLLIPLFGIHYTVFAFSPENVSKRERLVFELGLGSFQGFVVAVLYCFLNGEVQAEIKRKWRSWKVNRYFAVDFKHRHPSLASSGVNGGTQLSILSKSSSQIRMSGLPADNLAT
# [5] = tested on: NSCLC cells; assay: Proliferation of NSCLC cells; format: cell-based
# [6] = tested on: Calu-3 cells; assay: Clonogenic assay, Calu-3 cells; format: cell-based
# [7] = tested on: HER3; details: NSCLC cells ref Lee et al., 2020; cited from earlier work
# [8] = tested on: ERK; assay: ERK phosphorylation, Western blot, Calu-3 cells; format: cell-based
# [9] = tested on: HER3; assay: HER3 tyrosine phosphorylation, NSCLC cells; format: cell-based
compound,measurement,setting,value
"c1ccc2c(c1)[I+]c1ccccc1-2 [DPI, diphenylene iodonium]","effect of ROS inhibitors on HER3 transactivation, statistics",[1],not DPI impaired significantly
same,effect of ROS inhibitors on PACAP-induced HER3 tyrosine phosphorylation,[1],weakly
same,effect on PACAP-induced EGFR tyrosine phosphorylation (ROS inhibitors),[2],inhibited
same,effect on PACAP-induced HER2 tyrosine phosphorylation (ROS inhibitors),[3],inhibited
CC(=O)N[C@@H](CS)C(=O)O [N-acetyl cysteine],"effect of ROS inhibitors on HER3 transactivation, statistics",[1]; listed as NAC,significantly impair; also recorded: impaired significantly
same,effect of ROS inhibitors on PACAP-induced HER3 tyrosine phosphorylation,[1],strongly inhibited
same,effect on PACAP-induced EGFR tyrosine phosphorylation (ROS inhibitors),[2],inhibited
same,effect on PACAP-induced HER2 tyrosine phosphorylation (ROS inhibitors),[3],inhibited
CSCC[C@H](NC(=O)[C@H](CCC(N)=O)NC(=O)[C@H](CCCCN)NC(=O)[C@H](CCCNC(=N)N)NC(=O)[C@H](Cc1ccc(O)cc1)NC(=O)[C@H](CCCNC(=N)N)NC(=O)[C@H](CO)NC(=O)[C@H](Cc1ccc(O)cc1)NC(=O)[C@H](CO)NC(=O)[C@H](CC(=O)O)NC(=O)[C@@H](NC(=O)[C@@H](N)Cc1ccccc1)[C@@H](C)O)C(=O)N[C@@H](C)C(=O)N[C@H](C(=O)N[C@@H](CCCCN)C(=O)N[C@@H](CCCCN)C(=O)N[C@@H](Cc1ccc(O)cc1)C(=O)N[C@@H](CC(C)C)C(=O)N[C@@H](C)C(=O)N[C@@H](C)C(=O)N[C@H](C(=O)N[C@@H](CC(C)C)C(=O)NCC(=O)N[C@@H](CCCCN)C(=O)N[C@@H](CCCNC(=N)N)C(=O)N[C@@H](Cc1ccc(O)cc1)C(=O)N[C@@H](CCCCN)C(=O)N[C@@H](CCC(N)=O)C(=O)N[C@@H](CCCNC(=N)N)C(=O)N[C@H](C(=O)N[C@@H](CCCCN)C(=O)N[C@@H](CC(N)=O)C(=O)N[C@@H](CCCCN)C(N)=O)C(C)C)C(C)C)C(C)C [PACAP(6–38)],IC50,[4],31.4 ± 4.9 nM
O=S(=O)(O)c1cc(O)c(O)c(S(=O)(=O)O)c1 [Tiron],"effect of ROS inhibitors on HER3 transactivation, statistics",[1],significantly impair
same,"effect of ROS inhibitors on HER3 transactivation, statistics",[1]; listed as Tir,impaired significantly
same,effect of ROS inhibitors on PACAP-induced HER3 tyrosine phosphorylation,[1],strongly inhibited
same,effect on PACAP-induced EGFR tyrosine phosphorylation (ROS inhibitors),[2],inhibited
same,effect on PACAP-induced HER2 tyrosine phosphorylation (ROS inhibitors),[3],inhibited
COc1cc2ncnc(Nc3ccc(F)c(Cl)c3)c2cc1OCCCN1CCOCC1 [gefitinib],proliferation of NSCLC cells,[5],inhibited proliferation
same,effect on PACAP-27-induced increase in colony number,[6]; 100 nM PACAP-27,impaired
same,"Colony number, + PACAP","[6]; with 100 nM PACAP-27, PACAP(6–38) 5 μM, gefitinib 1 μM, trastuzumab 0.1 μg/ml, mAb3481 0.1 μg/ml, mean ± S.D. of 3 determinations",43 ± 5
Bombesin,HER3 tyrosine phosphorylation,[7],increases HER3 tyrosine phosphorylation
neuregulin (NRG)-1 [NRG-1],"ERK phosphorylation, densitometry statistics, 2, 5, 10 and 30 min","[8]; Fig. 2D, NRG-1 1 μg/ml, 2, 5, 10 and 30 min",significantly increased
same,"ERK phosphorylation, 5, 10 and 30 min","[8]; PACAP-27 1000 nM or NRG-1 1 μg/ml, 5, 10 and 30 min",moderate
same,"ERK phosphorylation, 2 min","[8]; PACAP-27 1000 nM or NRG-1 1 μg/ml, 2 min",weakly stimulates
same,"HER3 phosphorylation, 5, 10 and 30 min","[1]; Calu-3, PACAP-27 1000 nM or NRG-1 1 μg/ml, 5, 10 and 30 min",moderate
same,"HER3 phosphorylation, 2 min","[1]; Calu-3, PACAP-27 1000 nM or NRG-1 1 μg/ml, 2 min",weakly stimulates
same,"HER3 phosphorylation, densitometry statistics, 2, 5, 10 and 30 min","[1]; Fig. 2D, NRG-1 1 μg/ml, Calu-3, 2, 5, 10 and 30 min",significantly increased
same,"HER3 tyrosine phosphorylation, NSCLC cells",[9],increased HER3 tyrosine phosphorylation
same,proliferation of NSCLC cells,[5],increased the proliferation
same,increase in colony number,"[6]; NRG-1 0.1 μg/ml, PACAP-27 100 nM, 2 weeks",33%
